Here are results for twelve compounds from ChEMBL document CHEMBL3045763, “Synthesis and evaluation of anti-proliferative activity of 1,4-disubstituted phthalazines” (Med Chem Res, 2012).

A word on the IC50: it is the concentration needed to halve the response being measured. Lower therefore signals higher potency.

This test concerns MCF7. Description: Antiproliferative activity against Homo sapiens (human) MCF7 cells after 72 hr by SRB assay. It counts as functional, cell-based. The note with it: MCF7, 72 h.

Consider `CCOc1ccccc1N1CCN(c2nnc(-c3ccc(Br)cc3)c3ccccc23)CC1`, for which the IC50 was found to be 4.77 µM.
`COc1ccc(N2CCN(c3nnc(-c4ccc(Br)cc4)c4ccccc34)CC2)cc1` showed an IC50 of 17.5 µM.
In the case of `Brc1ccc(-c2nnc(Sc3nc4ccccc4s3)c3ccccc23)cc1`, the half-inhibitory concentration (IC50) was 2.3 µM.
Turning to `Clc1cccc(Cl)c1Nc1nnc(-c2ccc(Br)cc2)c2ccccc12`, 1.7 µM corresponded to half-maximal inhibition (IC50).
With `Clc1ncccc1Nc1nnc(-c2ccc(Br)cc2)c2ccccc12`, 1.7 µM corresponded to half-maximal inhibition (IC50).
In the case of `Brc1ccc(-c2nnc(N(Cc3ccccc3)Cc3ccccc3)c3ccccc23)cc1`, the half-inhibitory concentration (IC50) worked out at 4.8 µM.
`COc1ccccc1N1CCN(c2nnc(-c3ccc(Br)cc3)c3ccccc23)CC1` came in with an IC50 of 8.6 µM.
In turn, `Brc1ccc(-c2nnc(N3CCCCC3)c3ccccc23)cc1` yielded a concentration for half-maximal inhibition (IC50) of 9.1 µM.
`CN1CCN(c2nnc(-c3ccc(Br)cc3)c3ccccc23)CC1` yielded an IC50 of 1.5 µM.
For `Brc1ccc(-c2nnc(N3CCN(c4ccccc4)CC3)c3ccccc23)cc1`, half-maximal inhibition (IC50) was put at 9.7 µM. Compared with the last compound, the IC50 is about 6.5-fold higher.
Then `Brc1ccc(-c2nnc(N3CCOCC3)c3ccccc23)cc1`, with 1.9 µM; and `Brc1ccc(-c2nnc(Nc3nccs3)c3ccccc23)cc1`, with 1.4 µM.
